Reference: ChEMBL document CHEMBL3102798, “Stapled Vasoactive Intestinal Peptide (VIP) Derivatives Improve VPAC2 Agonism and Glucose-Dependent Insulin Secretion” (ACS Med Chem Lett, 2013)
Numbered stars: 1 amine (or outer) side, 2 acyl side, 3 side chain; on linkers, the order of the positions; unused ones are H or OH. Bridge positions count the residues as written; N and C are the ends. Square brackets hold non-standard residues; d marks the D form. Peptide text beside a SMILES is read from it. X1 = C[C@@](CCCCC=[*:3])(N[*:1])C(=O)[*:2]; S5 = C=CCCC[C@](C)(N)C(=O)O

Legend:
[1] = molecular target: T1, Vasoactive intestinal polypeptide receptor 2 (Homo sapiens, UniProt P41587); test: Agonist activity at human VPAC2 expressed in CHO Flp-in cells assessed as accumulation of cAMP after 30 mins by TR-FRET assay; format: functional, cell-based
T1 sequence (P41587 whole entry): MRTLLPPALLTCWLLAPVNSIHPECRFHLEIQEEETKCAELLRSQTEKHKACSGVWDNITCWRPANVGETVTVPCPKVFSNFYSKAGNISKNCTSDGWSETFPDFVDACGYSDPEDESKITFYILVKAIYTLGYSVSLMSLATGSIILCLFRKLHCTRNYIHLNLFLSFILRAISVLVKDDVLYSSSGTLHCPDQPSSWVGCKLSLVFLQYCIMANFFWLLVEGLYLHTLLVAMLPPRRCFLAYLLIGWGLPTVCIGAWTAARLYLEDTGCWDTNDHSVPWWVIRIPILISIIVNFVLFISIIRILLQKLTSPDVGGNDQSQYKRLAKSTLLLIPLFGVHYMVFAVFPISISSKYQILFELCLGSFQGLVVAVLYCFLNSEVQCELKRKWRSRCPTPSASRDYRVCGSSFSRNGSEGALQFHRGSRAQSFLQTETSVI

[2] = Stability of the compound in phosphate buffer assessed as compound remaining at pH 7.4 after 15 mins by LC-MS-MS analysis in presence of trypsin; format: ADME; conditions: phosphate buffer with trypsin, read-out: Stability
[3] = Apparent passive permeability across apical to basolateral side in human Caco2 cells at 10 uM after 30 to 60 mins by LC/MS analysis; format: ADME, cell-based; conditions: Caco-2

EC50 [1] | remaining at 0.25 h [2] | Papp A→B at 10 µM [3] | Molecule
1.37 nM | 0.7% | < 0.1 ×10⁻⁶ cm/s | C=CCCC[C@](C)(NC(=O)[C@H](CCC(N)=O)NC(=O)[C@H](CCCCN)NC(=O)[C@H](CCCN=C(N)N)NC(=O)[C@](C)(CCCC=C)NC(=O)[C@H](CCCN=C(N)N)NC(=O)[C@@H](NC(=O)[C@H](Cc1ccc(O)cc1)NC(=O)[C@H](CC(N)=O)NC(=O)[C@H](CC(=O)O)NC(=O)[C@@H](NC(=O)[C@H](Cc1ccccc1)NC(=O)[C@@H](NC(=O)[C@H](C)NC(=O)[C@H](CC(=O)O)NC(=O)[C@H](CO)NC(=O)[C@@H](N)Cc1cnc[nH]1)C(C)C)[C@@H](C)O)[C@@H](C)O)C(=O)N[C@@H](C)C(=O)N[C@H](C(=O)N[C@@H](CCCCN)C(=O)N[C@@H](CCCCN)C(=O)N[C@@H](Cc1ccc(O)cc1)C(=O)N[C@@H](CC(C)C)C(=O)N[C@@H](CC(N)=O)C(=O)N[C@@H](CO)C(=O)N[C@H](C(=O)N[C@@H](CC(C)C)C(=O)N[C@@H](CC(N)=O)C(=O)NCC(=O)N[C@@H](CCCCN)C(=O)O)[C@@H](C)CC)C(C)C
1.16 nM |  |  | CC[C@H](C)[C@H](NC(=O)[C@H](CO)NC(=O)[C@H](CC(N)=O)NC(=O)[C@H](CC(C)C)NC(=O)[C@H](Cc1ccc(O)cc1)NC(=O)[C@H](CCCCN)NC(=O)[C@H](CCCCN)NC(=O)[C@@H](NC(=O)[C@H](C)NC(=O)[C@@H]1CCCCNC(=O)CC[C@H](NC(=O)[C@H](CCCN=C(N)N)NC(=O)[C@@H](NC(=O)[C@H](Cc2ccc(O)cc2)NC(=O)[C@H](CC(N)=O)NC(=O)[C@H](CC(=O)O)NC(=O)[C@@H](NC(=O)[C@H](Cc2ccccc2)NC(=O)[C@@H](NC(=O)[C@H](C)NC(=O)[C@H](CC(=O)O)NC(=O)[C@H](CO)NC(=O)[C@@H](N)Cc2cnc[nH]2)C(C)C)[C@@H](C)O)[C@@H](C)O)C(=O)N[C@@H](CCCN=C(N)N)C(=O)N[C@@H](CCCCN)C(=O)N[C@@H](CCC(N)=O)C(=O)N1)C(C)C)C(=O)N[C@@H](CC(C)C)C(=O)N[C@@H](CC(N)=O)C(=O)NCC(=O)N[C@@H](CCCCN)C(=O)O (H-HSDAVFTDNYTRERKQKAVKKYLNSILNGK-OH; lactam 13-17)
0.11 nM |  |  | CC[C@H](C)[C@H](NC(=O)[C@H](CCC(N)=O)NC(=O)[C@H](CCCCN)NC(=O)[C@H](CCCNC(=N)N)NC(=O)[C@H](CC(C)C)NC(=O)[C@H](CCCNC(=N)N)NC(=O)[C@@H](NC(=O)[C@H](Cc1ccc(O)cc1)NC(=O)[C@H](CC(N)=O)NC(=O)[C@H](CC(=O)O)NC(=O)[C@@H](NC(=O)[C@H](Cc1ccccc1)NC(=O)[C@@H](NC(=O)[C@H](C)NC(=O)[C@H](CC(=O)O)NC(=O)[C@H](CO)NC(=O)[C@@H](N)Cc1cnc[nH]1)C(C)C)[C@@H](C)O)[C@@H](C)O)C(=O)N[C@@H](C)C(=O)N[C@H](C(=O)N[C@@H](CCCCN)C(=O)N[C@H]1CCC(=O)NCCCC[C@@H](C(=O)N[C@H](C(=O)N[C@@H](CC(C)C)C(=O)N[C@@H](CC(N)=O)C(=O)NCC(=O)N[C@@H](CCCCN)C(=O)O)[C@@H](C)CC)NC(=O)[C@H](CC(N)=O)NC(=O)[C@H](CC(C)C)NC(=O)[C@H](Cc2ccc(O)cc2)NC1=O)C(C)C (H-HSDAVFTDNYTRLRKQIAVKEYLNKILNGK-OH; lactam 21-25)
0.21 nM |  |  | C=CCCC[C@](C)(NC(=O)[C@H](CC(C)C)NC(=O)[C@@H](NC(=O)[C@H](CO)NC(=O)[C@](C)(CCCC=C)NC(=O)[C@H](CC(C)C)NC(=O)[C@H](Cc1ccc(O)cc1)NC(=O)[C@H](CCCCN)NC(=O)[C@H](CCCCN)NC(=O)[C@@H](NC(=O)[C@H](C)NC(=O)[C@@H](NC(=O)[C@H](CCC(N)=O)NC(=O)[C@H](CCCCN)NC(=O)[C@H](CCCNC(=N)N)NC(=O)[C@H](CC(C)C)NC(=O)[C@H](CCCNC(=N)N)NC(=O)[C@@H](NC(=O)[C@H](Cc1ccc(O)cc1)NC(=O)[C@H](CC(N)=O)NC(=O)[C@H](CC(=O)O)NC(=O)[C@@H](NC(=O)[C@H](Cc1ccccc1)NC(=O)[C@@H](NC(=O)[C@H](C)NC(=O)[C@H](CC(=O)O)NC(=O)[C@H](CO)NC(=O)[C@@H](N)Cc1cnc[nH]1)C(C)C)[C@@H](C)O)[C@@H](C)O)[C@@H](C)CC)C(C)C)[C@@H](C)CC)C(=O)NCC(=O)N[C@@H](CCCCN)C(=O)O (H-HSDAVFTDNYTRLRKQIAVKKYL[S5]SIL[S5]GK-OH)
0.39 nM |  |  | CC[C@H](C)[C@H](NC(=O)[C@H](CCC(N)=O)NC(=O)[C@H](CCCCN)NC(=O)[C@H](CCCNC(=N)N)NC(=O)[C@H](CC(C)C)NC(=O)[C@H](CCCNC(=N)N)NC(=O)[C@@H](NC(=O)[C@H](Cc1ccc(O)cc1)NC(=O)[C@H](CC(N)=O)NC(=O)[C@H](CC(=O)O)NC(=O)[C@@H](NC(=O)[C@H](Cc1ccccc1)NC(=O)[C@@H](NC(=O)[C@H](C)NC(=O)[C@H](CC(=O)O)NC(=O)[C@H](CO)NC(=O)[C@@H](N)Cc1cnc[nH]1)C(C)C)[C@@H](C)O)[C@@H](C)O)C(=O)N[C@@H](C)C(=O)N[C@H](C(=O)N[C@@H](CCCCN)C(=O)N[C@@H](CCCCN)C(=O)N[C@@H](Cc1ccc(O)cc1)C(=O)N[C@@H](CC(C)C)C(=O)N[C@@]1(C)CCCC/C=C\CCCC[C@@](C)(C(=O)NCC(=O)N[C@@H](CCCCN)C(=O)O)NC(=O)[C@H](CC(C)C)NC(=O)[C@H]([C@@H](C)CC)NC(=O)[C@H](CO)NC1=O)C(C)C (H-HSDAVFTDNYTRLRKQIAVKKYL[X1]SIL[X1]GK-OH; staple (Z) 24-28)
3.8 nM |  |  | C=CCCC[C@](C)(NC(=O)[C@H](CCCCN)NC(=O)[C@@H](NC(=O)[C@H](C)NC(=O)[C@@H](NC(=O)[C@H](CCC(N)=O)NC(=O)[C@H](CCCCN)NC(=O)[C@H](CCCN=C(N)N)NC(=O)[C@H](CC(C)C)NC(=O)[C@H](CCCN=C(N)N)NC(=O)[C@@H](NC(=O)[C@H](Cc1ccc(O)cc1)NC(=O)[C@H](CC(N)=O)NC(=O)[C@H](CC(=O)O)NC(=O)[C@@H](NC(=O)[C@H](Cc1ccccc1)NC(=O)[C@@H](NC(=O)[C@H](C)NC(=O)[C@H](CC(=O)O)NC(=O)[C@H](CO)NC(=O)[C@@H](N)Cc1cnc[nH]1)C(C)C)[C@@H](C)O)[C@@H](C)O)[C@@H](C)CC)C(C)C)C(=O)N[C@@H](Cc1ccc(O)cc1)C(=O)N[C@@H](CC(C)C)C(=O)N[C@@H](CC(N)=O)C(=O)N[C@@](C)(CCCC=C)C(=O)N[C@H](C(=O)N[C@@H](CC(C)C)C(=O)N[C@@H](CC(N)=O)C(=O)NCC(=O)N[C@@H](CCCCN)C(=O)O)[C@@H](C)CC (H-HSDAVFTDNYTRLRKQIAVK[S5]YLN[S5]ILNGK-OH)
1.52 nM |  |  | CC[C@H](C)[C@H](NC(=O)[C@H](CCC(N)=O)NC(=O)[C@H](CCCCN)NC(=O)[C@H](CCCNC(=N)N)NC(=O)[C@H](CC(C)C)NC(=O)[C@H](CCCNC(=N)N)NC(=O)[C@@H](NC(=O)[C@H](Cc1ccc(O)cc1)NC(=O)[C@H](CC(N)=O)NC(=O)[C@H](CC(=O)O)NC(=O)[C@@H](NC(=O)[C@H](Cc1ccccc1)NC(=O)[C@@H](NC(=O)[C@H](C)NC(=O)[C@H](CC(=O)O)NC(=O)[C@H](CO)NC(=O)[C@@H](N)Cc1cnc[nH]1)C(C)C)[C@@H](C)O)[C@@H](C)O)C(=O)N[C@@H](C)C(=O)N[C@H](C(=O)N[C@@H](CCCCN)C(=O)N[C@@]1(C)CCCC/C=C\CCCC[C@@](C)(C(=O)N[C@H](C(=O)N[C@@H](CC(C)C)C(=O)N[C@@H](CC(N)=O)C(=O)NCC(=O)N[C@@H](CCCCN)C(=O)O)[C@@H](C)CC)NC(=O)[C@H](CC(N)=O)NC(=O)[C@H](CC(C)C)NC(=O)[C@H](Cc2ccc(O)cc2)NC1=O)C(C)C (H-HSDAVFTDNYTRLRKQIAVK[X1]YLN[X1]ILNGK-OH; staple (Z) 21-25)
1.49 nM |  |  | C=CCCC[C@](C)(NC(=O)[C@H](CCC(N)=O)NC(=O)[C@H](CCCCN)NC(=O)[C@H](CCCN=C(N)N)NC(=O)[C@H](CC(C)C)NC(=O)[C@H](CCCN=C(N)N)NC(=O)[C@@H](NC(=O)[C@H](Cc1ccc(O)cc1)NC(=O)[C@H](CC(N)=O)NC(=O)[C@H](CC(=O)O)NC(=O)[C@@H](NC(=O)[C@H](Cc1ccccc1)NC(=O)[C@@H](NC(=O)[C@H](C)NC(=O)[C@H](CC(=O)O)NC(=O)[C@H](CO)NC(=O)[C@@H](N)Cc1cnc[nH]1)C(C)C)[C@@H](C)O)[C@@H](C)O)C(=O)N[C@@H](C)C(=O)N[C@H](C(=O)N[C@@H](CCCCN)C(=O)N[C@@](C)(CCCC=C)C(=O)N[C@@H](Cc1ccc(O)cc1)C(=O)N[C@@H](CC(C)C)C(=O)N[C@@H](CC(N)=O)C(=O)N[C@@H](CO)C(=O)N[C@H](C(=O)N[C@@H](CC(C)C)C(=O)N[C@@H](CC(N)=O)C(=O)NCC(=O)N[C@@H](CCCCN)C(=O)O)[C@@H](C)CC)C(C)C (H-HSDAVFTDNYTRLRKQ[S5]AVK[S5]YLNSILNGK-OH)
0.33 nM |  |  | CC[C@H](C)[C@H](NC(=O)[C@H](CO)NC(=O)[C@H](CC(N)=O)NC(=O)[C@H](CC(C)C)NC(=O)[C@H](Cc1ccc(O)cc1)NC(=O)[C@]1(C)CCCC/C=C\CCCC[C@](C)(NC(=O)[C@H](CCC(N)=O)NC(=O)[C@H](CCCCN)NC(=O)[C@H](CCCNC(=N)N)NC(=O)[C@H](CC(C)C)NC(=O)[C@H](CCCNC(=N)N)NC(=O)[C@@H](NC(=O)[C@H](Cc2ccc(O)cc2)NC(=O)[C@H](CC(N)=O)NC(=O)[C@H](CC(=O)O)NC(=O)[C@@H](NC(=O)[C@H](Cc2ccccc2)NC(=O)[C@@H](NC(=O)[C@H](C)NC(=O)[C@H](CC(=O)O)NC(=O)[C@H](CO)NC(=O)[C@@H](N)Cc2cnc[nH]2)C(C)C)[C@@H](C)O)[C@@H](C)O)C(=O)N[C@@H](C)C(=O)N[C@@H](C(C)C)C(=O)N[C@@H](CCCCN)C(=O)N1)C(=O)N[C@@H](CC(C)C)C(=O)N[C@@H](CC(N)=O)C(=O)NCC(=O)N[C@@H](CCCCN)C(=O)O (H-HSDAVFTDNYTRLRKQ[X1]AVK[X1]YLNSILNGK-OH; staple (Z) 17-21)
6.6 nM |  |  | H-HSDAVFTDNYTRERKQKAVKKYLNSILNGK-OH
0.21 nM |  |  | H-HSDAVFTDNYTRLRKQIAVKEYLNKILNGK-OH
0.14 nM | 0.3% | < 0.1 ×10⁻⁶ cm/s | H-HSDAVFTDNYTRLRKQIAVKKYLNSILNGK-OH
